Source: ChEMBL document CHEMBL3994622, “Design and synthesis of new RAF kinase-inhibiting antiproliferative quinoline derivatives. Part 2: Diarylurea derivatives” (Eur J Med Chem, 2017)

Tests used:
Format in all cases: functional
[1] = tested on: NCI-H226; assay: Growth inhibition of human NCI-H226 cells assessed as cell growth at 0.3 uM incubated for 48 hrs by sulforhodamine B assay relative to control; details: NCI-H226, 48 h, read-out: Activity
[2] = tested on: NCI-H522; assay: Growth inhibition of human NCI-H522 cells assessed as cell growth at 0.03 uM incubated for 48 hrs by sulforhodamine B assay relative to control; details: NCI-H522, 48 h, read-out: Activity
[3] = tested on: SF-268; assay: Growth inhibition of human SF268 cells assessed as cell growth at 0.003 uM incubated for 48 hrs by sulforhodamine B assay relative to control; details: SF-268, 48 h, read-out: Activity
[4] = tested on: UACC-257; assay: Growth inhibition of human UACC257 cells assessed as cell growth at 0.003 uM incubated for 48 hrs by sulforhodamine B assay relative to control; details: UACC-257, 48 h, read-out: Activity
[5] = tested on: HCC 2998; assay: Growth inhibition of human HCC2998 cells assessed as cell growth at 30 uM incubated for 48 hrs by sulforhodamine B assay relative to control; details: HCC 2998, 48 h, read-out: Activity
[6] = tested on: OVCAR-3; assay: Growth inhibition of human OVCAR3 cells assessed as cell growth at 0.003 uM incubated for 48 hrs by sulforhodamine B assay relative to control; details: OVCAR-3, 48 h, read-out: Activity
[7] = tested on: A498; assay: Growth inhibition of human A498 cells assessed as cell growth at 30 uM incubated for 48 hrs by sulforhodamine B assay relative to control; details: A498, 48 h, read-out: Activity
[8] = tested on: HL-60(TB); assay: Growth inhibition of human HL-60(TB) cells assessed as cell growth at 0.3 uM incubated for 48 hrs by sulforhodamine B assay relative to control; details: HL-60, 48 h, read-out: Activity
[9] = tested on: MDA-MB-435; assay: Growth inhibition of human MDA-MB-435 cells assessed as cell growth at 0.003 uM incubated for 48 hrs by sulforhodamine B assay relative to control; details: MDA-MB-435, 48 h, read-out: Activity
[10] = tested on: ACHN; assay: Growth inhibition of human ACHN cells assessed as cell growth at 0.3 uM incubated for 48 hrs by sulforhodamine B assay relative to control; details: read-out: Activity
[11] = tested on: OVCAR-3; assay: Growth inhibition of human OVCAR3 cells assessed as cell growth at 3 uM incubated for 48 hrs by sulforhodamine B assay relative to control; details: OVCAR-3, 48 h, read-out: Activity
[12] = tested on: SK-MEL-28; assay: Growth inhibition of human SK-MEL-28 cells assessed as cell growth at 1 uM incubated for 48 hrs by sulforhodamine B assay relative to control; details: SK-MEL-28, 48 h, read-out: Activity
[13] = tested on: TK-10; assay: Growth inhibition of human TK10 cells assessed as cell growth at 0.01 uM incubated for 48 hrs by sulforhodamine B assay relative to control; details: TK-10, 48 h, read-out: Activity
[14] = tested on: NCI-H522; assay: Growth inhibition of human NCI-H522 cells assessed as cell growth at 1 uM incubated for 48 hrs by sulforhodamine B assay relative to control; details: NCI-H522, 48 h, read-out: Activity
[15] = tested on: SR; assay: Growth inhibition of human SR cells assessed as cell growth at 10 uM incubated for 48 hrs by sulforhodamine B assay relative to control; details: read-out: Activity
[16] = tested on: SK-MEL-2; assay: Growth inhibition of human SK-MEL-2 cells assessed as cell growth at 1 uM incubated for 48 hrs by sulforhodamine B assay relative to control; details: SK-MEL-2, 48 h, read-out: Activity
[17] = tested on: NCI/ADR-RES; assay: Growth inhibition of human NCI/ADR-RES cells assessed as cell growth at 1 uM incubated for 48 hrs by sulforhodamine B assay relative to control; details: read-out: Activity
[18] = tested on: DU-145; assay: Growth inhibition of human DU145 cells assessed as cell growth at 10 uM incubated for 48 hrs by sulforhodamine B assay relative to control; details: DU-145, 48 h, read-out: Activity
[19] = tested on: M14; assay: Growth inhibition of human M14 cells assessed as cell growth at 0.01 uM incubated for 48 hrs by sulforhodamine B assay relative to control; details: M14, 48 h, read-out: Activity
[20] = tested on: NCI-H322M; assay: Growth inhibition of human NCI-H322M cells assessed as cell growth at 1 uM incubated for 48 hrs by sulforhodamine B assay relative to control; details: read-out: Activity
[21] = tested on: HOP-92; assay: Growth inhibition of human HOP92 cells assessed as cell growth at 1 uM incubated for 48 hrs by sulforhodamine B assay relative to control; details: HOP-92, 48 h, read-out: Activity
[22] = tested on: SK-OV-3; assay: Growth inhibition of human SKOV3 cells assessed as cell growth at 0.1 uM incubated for 48 hrs by sulforhodamine B assay relative to control; details: SK-OV-3, 48 h, read-out: Activity
[23] = tested on: COLO 205; assay: Growth inhibition of human COLO205 cells assessed as cell growth at 10 uM incubated for 48 hrs by sulforhodamine B assay relative to control; details: COLO 205, 48 h, read-out: Activity
[24] = tested on: RXF 393; assay: Growth inhibition of human RXF393 cells assessed as cell growth at 100 uM incubated for 48 hrs by sulforhodamine B assay relative to control; details: RXF 393, 48 h, read-out: Activity
[25] = tested on: HCC 2998; assay: Growth inhibition of human HCC2998 cells assessed as cell growth at 10 uM incubated for 48 hrs by sulforhodamine B assay relative to control; details: HCC 2998, 48 h, read-out: Activity
[26] = tested on: IGROV-1; assay: Growth inhibition of human IGROV1 cells assessed as cell growth at 1 uM incubated for 48 hrs by sulforhodamine B assay relative to control; details: IGROV-1, 48 h, read-out: Activity
[27] = tested on: CAKI-1; assay: Growth inhibition of human Caki1 cells assessed as cell growth at 0.1 uM incubated for 48 hrs by sulforhodamine B assay relative to control; details: CAKI-1, 48 h, read-out: Activity
[28] = tested on: SW-620; assay: Growth inhibition of human SW620 cells assessed as cell growth at 0.01 uM incubated for 48 hrs by sulforhodamine B assay relative to control; details: SW-620, 48 h, read-out: Activity
[29] = tested on: NCI-H226; assay: Growth inhibition of human NCI-H226 cells assessed as cell growth at 100 uM incubated for 48 hrs by sulforhodamine B assay relative to control; details: NCI-H226, 48 h, read-out: Activity
[30] = tested on: UACC-257; assay: Growth inhibition of human UACC257 cells assessed as cell growth at 0.1 uM incubated for 48 hrs by sulforhodamine B assay relative to control; details: UACC-257, 48 h, read-out: Activity
[31] = tested on: HCT-15; assay: Growth inhibition of human HCT15 cells assessed as cell growth at 1 uM incubated for 48 hrs by sulforhodamine B assay relative to control; details: HCT-15, 48 h, read-out: Activity
[32] = tested on: SNB-75; assay: Growth inhibition of human SNB75 cells assessed as cell growth at 0.1 uM incubated for 48 hrs by sulforhodamine B assay relative to control; details: SNB-75, 48 h, read-out: Activity
[33] = tested on: OVCAR-5; assay: Growth inhibition of human OVCAR5 cells assessed as cell growth at 100 uM incubated for 48 hrs by sulforhodamine B assay relative to control; details: OVCAR-5, 48 h, read-out: Activity
[34] = tested on: SK-MEL-2; assay: Growth inhibition of human SK-MEL-2 cells assessed as cell growth at 0.01 uM incubated for 48 hrs by sulforhodamine B assay relative to control; details: SK-MEL-2, 48 h, read-out: Activity

Row | Structure (SMILES) | growth at 0.3 µM [1] [%] | growth at 0.03 µM [2] [%] | growth at 0.003 µM [3] [%] | growth at 0.003 µM [4] [%] | growth at 30 µM [5] [%] | growth at 0.003 µM [6] [%] | growth at 30 µM [7] [%] | growth at 0.3 µM [8] [%] | growth at 0.003 µM [9] [%] | growth at 0.3 µM [10] [%] | growth at 3 µM [11] [%] | growth at 1 µM [12] [%] | growth at 0.01 µM [13] [%] | growth at 1 µM [14] [%] | growth at 10 µM [15] [%] | growth at 1 µM [16] [%] | growth at 1 µM [17] [%] | growth at 10 µM [18] [%] | growth at 0.01 µM [19] [%] | growth at 1 µM [20] [%] | also measured
1 | COc1cc2cc(Oc3ccc(NC(=O)Nc4ccc(Cl)c(C(F)(F)F)c4)cc3)c(C)nc2cc1OC | 106 | 93 | 95 | 94 | -98 | 100 | -98 | 111 | 98 | 95 | 14 |  |  |  |  |  |  |  |  |  | 
2 | COc1cc2cc(Oc3ccc(NC(=O)Nc4cc(C(F)(F)F)cc(C(F)(F)F)c4)cc3)c(C)nc2cc1OC |  |  |  |  |  |  |  |  |  |  |  | 59 | 96 | 63 | -20 | 85 | 62 | -2 | 92 | 59 | growth at 1 µM [21]: 54%; growth at 0.1 µM [22]: 104%; growth at 10 µM [23]: -74%; growth at 100 µM [24]: -78%; growth at 10 µM [25]: -80%; growth at 1 µM [26]: 31%; growth at 0.1 µM [27]: 90%; growth at 0.01 µM [28]: 100%; growth at 100 µM [29]: -52%; growth at 0.1 µM [30]: 110%; growth at 1 µM [31]: 41%; growth at 0.1 µM [32]: 74%; growth at 100 µM [33]: -78%; growth at 0.01 µM [34]: 106%
3 | COc1cc2cc(Oc3ccc(NC(=O)Nc4ccc(Cl)c(Cl)c4)cc3)c(C)nc2cc1OC |  |  |  |  |  |  |  |  |  |  |  | 97 | 106 | 68 | 1 | 121 | 76 | 19 | 84 | 102 | growth at 1 µM [21]: 91%; growth at 0.1 µM [22]: 107%; growth at 10 µM [23]: -25%; growth at 100 µM [24]: -65%; growth at 10 µM [25]: 34%; growth at 1 µM [26]: 110%; growth at 0.1 µM [27]: 87%; growth at 0.01 µM [28]: 101%; growth at 100 µM [29]: -85%; growth at 0.1 µM [30]: 92%; growth at 1 µM [31]: 88%; growth at 0.1 µM [32]: 75%; growth at 100 µM [33]: -44%; growth at 0.01 µM [34]: 116%
4 | Cc1nc2cc(O)c(O)cc2cc1Oc1ccc(NC(=O)Nc2ccc(Cl)c(Cl)c2)cc1 | 97 | 95 | 100 | 85 | -51 | 105 | 75 | 106 | 94 | 107 | 107 |  |  |  |  |  |  |  |  |  | 
